The numbers were not newly measured in patent US11926624B2 (INTERNATIONAL PAPER COMPANY, priority 2018, dated 2024), which cites them from elsewhere.

Like-named read-outs stand apart in the source and are kept apart here.

One data set addresses T1, Renilla Luciferase (Renilla reniformis, UniProt P27652).
T1 sequence (P27652 1-311): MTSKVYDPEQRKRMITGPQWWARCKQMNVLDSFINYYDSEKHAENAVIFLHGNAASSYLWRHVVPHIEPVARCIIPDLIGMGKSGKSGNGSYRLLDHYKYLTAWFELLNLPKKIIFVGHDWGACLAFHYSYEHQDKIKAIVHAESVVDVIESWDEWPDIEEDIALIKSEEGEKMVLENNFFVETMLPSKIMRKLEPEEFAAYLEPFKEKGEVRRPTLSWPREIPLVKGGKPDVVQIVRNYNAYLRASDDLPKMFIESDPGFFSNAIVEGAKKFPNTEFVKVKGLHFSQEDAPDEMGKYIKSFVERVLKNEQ
The conditions noted are these: for Initial Intensity / Total Light / Aem: with Renilla Luciferase; for Initial Intensity: luminescent intensity as % initial intensity; for Total Light: native = 100.

Data set [1] deals with Gaussia luciferase (Gluc).
The target in the next data set is T2, aequorin (Aequorea victoria, UniProt P07164).
T2 sequence (P07164 8-196): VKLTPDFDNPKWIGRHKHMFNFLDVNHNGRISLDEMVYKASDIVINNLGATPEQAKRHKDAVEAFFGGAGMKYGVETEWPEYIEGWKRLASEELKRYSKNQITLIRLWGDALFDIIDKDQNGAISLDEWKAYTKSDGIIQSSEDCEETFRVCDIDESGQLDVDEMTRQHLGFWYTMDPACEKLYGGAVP
The note with it: for luminescence intensity relative to coelenterazine (native form): coelenterazine-aequorin/apoaequorin complex.

Consider “8-benzyl-2-(4-hydroxybenzyl)-6-(4-hydroxyphenyl)imidazo[1,2-α]pyrazin-3(7H)-one [coelenterazine]”, for which the entries for the “Initial Intensity” value on Renilla Luciferase (listed as native) and at Renilla Luciferase (listed as native coelenterazine) were 45% and “about 45%”, respectively. At Renilla Luciferase, the “Total Light” value is recorded as 100%.

Take `O=c1c(Cc2ccccc2)nc2c(Cc3ccccc3)[nH]c(-c3ccccc3)cn1-2` [coelenterazine 400a, (2-2′(4-dehydroxy)) coelenterazine]: at Renilla Luciferase, the emission maximum entry was “about 400 nm” and the “substrate quality for Renilla luciferase” value is recorded as “good substrate”. Besides, the “oxidation with Gaussia luciferase” value in data set [1] is given as “does not oxidize well”.

Take `O=c1c(Cc2ccc(O)cc2)nc2c(CC3CCCC3)[nH]c(-c3ccc(O)cc3)cn1-2` [coelenterazine cp]: on Renilla Luciferase, the Aem was 470 nm and the “Total Light” value is recorded as 23%.

For `O=c1c(Cc2ccc(F)cc2)nc2c(Cc3ccccc3)[nH]c(-c3ccc(O)cc3)cn1-2` [coelenterazine f], on Renilla Luciferase, the Aem is 473 nm, the “Initial Intensity” value is given as 45% and the “Total Light” value is on record as 28%. The “luminescence intensity relative to coelenterazine (native form)” value at aequorin is listed as “about 20 times”. In addition, the “emission maximum longer than that of the native form” value at aequorin (coelenterazine-apoaequorin complex) is given as “about 8 nm”.

On to `O=c1c(Cc2ccc(F)cc2)nc2c(CC3CCCC3)[nH]c(-c3ccc(O)cc3)cn1-2` [coelenterazine fcp], for which the “substrate quality for Renilla luciferase” value on Renilla Luciferase is “poor substrate”. The “luminescence intensity relative to coelenterazine (native form)” value at aequorin is “about 135 times”.
